In general, Ki refers to a measure of affinity in units of concentration, obtained from inhibition or displacement.

Sequence of PIK3CG (human) (P48736 whole entry, looked up): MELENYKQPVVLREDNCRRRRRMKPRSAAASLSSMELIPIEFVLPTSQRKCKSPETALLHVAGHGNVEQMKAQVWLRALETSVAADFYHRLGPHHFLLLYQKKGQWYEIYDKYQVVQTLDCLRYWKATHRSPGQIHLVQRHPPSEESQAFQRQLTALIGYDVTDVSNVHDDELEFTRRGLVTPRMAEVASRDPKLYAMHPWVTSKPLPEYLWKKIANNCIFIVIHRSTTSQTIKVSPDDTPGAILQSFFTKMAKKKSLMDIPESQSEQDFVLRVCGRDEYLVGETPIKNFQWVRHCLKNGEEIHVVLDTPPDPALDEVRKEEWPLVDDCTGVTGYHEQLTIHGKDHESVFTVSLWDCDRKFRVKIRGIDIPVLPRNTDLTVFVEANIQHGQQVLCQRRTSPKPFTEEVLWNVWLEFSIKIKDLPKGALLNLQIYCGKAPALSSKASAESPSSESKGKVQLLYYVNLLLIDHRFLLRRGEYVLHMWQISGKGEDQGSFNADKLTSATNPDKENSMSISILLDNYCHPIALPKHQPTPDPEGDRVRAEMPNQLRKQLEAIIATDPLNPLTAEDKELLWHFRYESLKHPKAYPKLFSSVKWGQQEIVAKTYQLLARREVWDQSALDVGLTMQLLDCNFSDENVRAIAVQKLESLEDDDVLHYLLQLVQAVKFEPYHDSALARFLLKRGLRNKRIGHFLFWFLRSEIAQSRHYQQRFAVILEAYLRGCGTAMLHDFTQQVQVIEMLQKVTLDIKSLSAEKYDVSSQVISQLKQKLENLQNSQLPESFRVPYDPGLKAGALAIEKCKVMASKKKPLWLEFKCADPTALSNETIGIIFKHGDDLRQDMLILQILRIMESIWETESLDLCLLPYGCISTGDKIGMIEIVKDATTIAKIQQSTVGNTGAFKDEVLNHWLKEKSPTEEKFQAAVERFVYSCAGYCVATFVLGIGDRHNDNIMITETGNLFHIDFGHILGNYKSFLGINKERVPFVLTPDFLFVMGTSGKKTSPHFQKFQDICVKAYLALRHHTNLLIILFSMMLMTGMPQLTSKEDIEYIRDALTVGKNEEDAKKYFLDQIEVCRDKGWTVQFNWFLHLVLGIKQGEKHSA

The assay concerns the target PIK3CG (human) (UniProt P48736). In words: Inhibition of PIK3CG Kinase Activity.
Regarding `Cc1cc(-c2cnc(N)c(OC(F)F)c2)nc2c1C(=O)N(c1cnn(CC(F)(F)F)c1)C2`, the Ki was below 100 nM.

`Cc1cc(-c2cncc(C(=O)NC3CC3)c2)nc2c1C(=O)N(c1cnn(CC(F)(F)F)c1)C2(C)C` came in with a Ki of 100 to 490 nM. Compound `COc1cc(-c2ccc3c(n2)CN(c2cnn(C(C)(C)C#N)c2)C3=O)cnc1OC(F)F` registered a Ki below 100 nM. As to `Cc1cc(-c2cncc(OC(F)F)c2)nc2c1C(=O)N(c1cncc(CC#N)c1)C2`, the Ki was below 100 nM.

With `COc1ncc(-c2cc(C)c3c(n2)CN(c2cnn(CC(F)(F)F)c2)C3=O)cc1OCC1CCCCO1` (stereo not given), the Ki is below 100 nM. Next, `COc1cc(-c2ccc3c(n2)CN(c2cnn(Cc4cncn4C)c2)C3=O)cnc1OC`: below 100 nM. `COc1cc(-c2ccc3c(n2)CN(c2ccc(CN4CCOCC4)nc2)C3=O)cnc1OC` came in with a Ki of 100 to 490 nM. `COc1cc(-c2ccc3c(n2)CN(c2ccn(CC4CCCCO4)n2)C3=O)cnc1OC` (stereo not given) displayed a Ki below 100 nM. For the compound `COc1cc(-c2ccc3c(n2)C(C)N(c2cnn(CC(C)(C)O)c2)C3=O)cnc1OC` (stereo not given), the Ki lay in the range of 100 to 490 nM. Consider `Cc1cc(-c2cncc(OCC(F)F)c2)nc2c1C(=O)N(c1cnn(CC(F)(F)F)c1)C2`, for which the Ki is below 100 nM. `COc1cc(-c2cc(C)c3c(n2)[C@@H](OC)N(c2cnn(CC(F)(F)F)c2)C3=O)cnc1OC` yielded a Ki below 100 nM. For `COCCOc1ncc(-c2ccc3c(n2)CN(c2cnn(CC#N)c2)C3=O)cc1OC` the value was below 100 nM; for `COc1ccc(-c2cc(C)c3c(n2)CN(c2cnn(CC#N)c2)C3=O)c(OC)n1`, below 100 nM. `COC(=O)Cc1cncc(N2Cc3nc(-c4cnc(OC)c(OC)c4)cc(C)c3C2=O)c1` returned a Ki below 100 nM. Next, `CC(C)(C#N)n1cc(N2Cc3nc(-c4cncc(OC(F)F)c4)ccc3C2=O)cn1`: 100 to 490 nM; `COc1cc(-c2ccc3c(n2)[C@H](C)N(c2ccnc(CC#N)c2)C3=O)cnc1OC`: below 100 nM; `COc1cc(-c2ccc3c(n2)[C@@H](C)N(c2cnn(CC#N)c2)C3=O)cnc1OC`: below 100 nM.

Turning to `Cc1cc(-c2cncc(NS(=O)(=O)c3ccc(F)cc3F)c2)nc2c1C(=O)N(c1cnn(CC(F)(F)F)c1)C2(C)C`, the Ki was below 100 nM.

Consider `COc1cc(-c2cc(C)c3c(n2)CN(c2cncc(S(C)(=O)=O)c2)C3=O)cnc1OC`, for which the Ki is below 100 nM. For `CCOCCCOc1ncc(-c2cc(C)c3c(n2)CN(c2cnn(CC(F)(F)F)c2)C3=O)cc1OC`, the Ki was 100 to 490 nM. On to `COc1cc(-c2ccc3c(c2)CN(c2cccc(Cn4cncn4)c2)C3=O)cnc1OC`, for which the Ki is below 100 nM. For the compound `COc1ncc(-c2cc(C)c3c(n2)CN(c2cn[nH]c2)C3=O)cc1OC(C)C`, the Ki was below 100 nM. Regarding `COc1ncc(-c2ccc3c(c2)CN(c2cnn(CC#N)c2)C3=O)c(OC)n1`, the Ki was below 100 nM.

With `Cc1cc(-c2cnc(C)c(OCC(F)F)c2)nc2c1C(=O)N(c1cnn(CC(F)F)c1)C2C` (stereo not given), the Ki is below 100 nM.

In turn, `COCCOCn1cc(N2Cc3nc(-c4cnc(OC)c(OC)c4)ccc3C2=O)cn1` registered a Ki below 100 nM. `CCn1cc(N2C(=O)c3ccc(-c4cnc(OC)c(OC(F)F)c4)nc3[C@H]2C)cn1` showed a Ki below 100 nM. Next, `CCOc1ncc(-c2cc(C)c3c(n2)CN(c2cn(CC(F)(F)F)cn2)C3=O)cc1OC`: below 100 nM; `COc1cc(-c2ccc3c(c2)CN(c2nncs2)C3=O)cnc1OC`: 100 to 490 nM; `COCCn1cc(N2Cc3nc(-c4cnc(OC)c(OC)c4)ccc3C2=O)ccc1=O`: 100 to 490 nM. `Cc1cc(-c2cncc(OC(F)F)c2)nc2c1C(=O)N(c1cn[nH]c1)C2C` (stereo not given): the Ki is below 100 nM.

`Cc1ccc(-c2cc(C)c3c(n2)CN(c2cnn(CC#N)c2)C3=O)cn1` showed a Ki below 100 nM. The compound `COc1cncc(-c2cc(C)c3c(n2)CN(c2ccn(C)n2)C3=O)c1` showed a Ki below 100 nM. Compound `CCOc1cncc(-c2cc(C)c3c(n2)[C@@]2(CCOC2)N(c2cnn(CC(F)(F)F)c2)C3=O)c1` returned a Ki below 100 nM. Next, `CCc1cc(N2Cc3nc(-c4cnc(OC)c(OC)c4)ccc3C2=O)n[nH]1`: 100 to 490 nM.

Compound `COc1ncc(-c2cc(C)c3c(n2)C(C)(C)N(c2cnn(CC(F)(F)F)c2)C3=O)cc1NS(=O)(=O)N(C)C` showed a Ki below 100 nM. `Cc1cc(-c2cncc(OC(F)F)c2)nc2c1C(=O)N(c1cnn(CC(F)(F)F)c1)C21CC1` gave a Ki below 100 nM. Next, `COc1cc(-c2ccc3c(n2)CN(c2ccc(C)s2)C3=O)cnc1OC`: below 100 nM; `COc1cc(-c2ccc3c(n2)[C@H](C)N(c2ccn(CC(C)(C)O)n2)C3=O)cnc1OC`: below 100 nM; `Cc1cc(-c2cnc(C)c(C(=O)NC(C)C)c2)nc2c1C(=O)N(c1cnn(CC(F)(F)F)c1)C2(C)C`: below 100 nM. On to `COc1cc(-c2ccc3c(n2)CN(c2cnn(CCN4CCOCC4)c2)C3=O)cnc1OC`, for which the inhibition constant Ki fell in the range of 100 to 490 nM. For `COc1cc(-c2ccc3c(n2)CN(c2ccc(N4CCC(C#N)CC4)nc2)C3=O)cnc1OC` the value was below 100 nM. For `CCOc1ncc(-c2cc(C)c3c(n2)[C@]2(CCCO2)N(c2cnn(CC(F)(F)F)c2)C3=O)cc1OC` the value was below 100 nM. As to `CCn1cc(N2Cc3nc(-c4cnc(OC)c(OC)c4)ccc3C2=O)ccc1=O`, the Ki is below 100 nM.

Compound `COc1cncc(-c2cc(C)c3c(n2)[C@@H](C)N(c2cnn(CC(F)(F)F)c2)C3=O)c1` gave a Ki below 100 nM. As for `COc1cc(-c2cc(C)c3c(n2)CN(c2ncccn2)C3=O)cnc1OC`, the Ki was 100 to 490 nM. Turning to `COc1cc(-c2ccc3c(c2)CN(c2ncc(C)s2)C3=O)cnc1OC`, the Ki fell in the range of 100 to 490 nM. Next, `Cc1cc(-c2cc(O)cs2)nc2c1C(=O)N(c1cnn(CC(F)(F)F)c1)C2`: below 100 nM.

`COc1cc(-c2ccc3c(n2)CN(c2ccc(N(C)CC4OCCO4)nc2)C3=O)cnc1OC` registered a Ki of 100 to 490 nM.

For `CCOc1ncc(-c2cc(C)c3c(c2)CN(c2cnn(CC(F)(F)F)c2)C3=O)cc1OC`, the Ki was below 100 nM. As to `COc1cc(-c2cc(C)c3c(n2)[C@](C)(OC)N(c2cnn(CC(F)(F)F)c2)C3=O)cnc1OC`, the Ki is below 100 nM. As for `CCn1cc(N2C(=O)c3ccc(-c4cnc(OC)c(OC(F)F)c4)nc3C2C)cn1` (stereo not given), the Ki was below 100 nM. The compound `Cc1cc(-c2ccc(N)nc2)nc2c1C(=O)N(c1cnn(CC(F)(F)F)c1)C2` had a Ki below 100 nM.

`COc1cc(OC)cc(-c2cc(C)c3c(n2)CN(c2cnn(CC#N)c2)C3=O)c1`: the Ki was below 100 nM. `COc1cc(-c2cc(C)c3c(n2)[C@@]2(CCCO2)N(c2cnn(CC(F)(F)F)c2)C3=O)cnc1OC(C)C` had a Ki below 100 nM. In the case of `CO[C@H]1c2nc(-c3cncc(OCC(F)F)c3)cc(C)c2C(=O)N1c1cnn(CC(F)(F)F)c1`, the Ki was below 100 nM. Consider `Cc1cc(-c2cc(C)c3c(n2)CN(c2cnn(CC(F)(F)F)c2)C3=O)ccn1`, for which the Ki is below 100 nM. For `CCC1(OC)c2nc(-c3cnc(OC)c(OC)c3)cc(C)c2C(=O)N1c1cnn(CC(F)(F)F)c1` (stereo not given) the value was below 100 nM; for `COc1cc(-c2ccc3c(c2)CN(c2csc(C)c2)C3=O)cnc1OC`, 100 to 490 nM; for `COc1cc(-c2cc(C)c3c(n2)CN(c2cnn(C[C@H](C)O)c2)C3=O)cnc1OC`, below 100 nM. `COc1cc(-c2cc(C)c3c(n2)[C@@](C)(O)N(c2cnn(CC(F)(F)F)c2)C3=O)cnc1OC` came in with a Ki below 100 nM.

Compound `CCOc1cc(-c2cc(C)c3c(c2)CN(c2cnn(CC(F)(F)F)c2)C3=O)cnc1OCC` gave a Ki below 100 nM.

`COc1cc(-c2cc(Cl)c3c(c2)CN(c2cnn(CC#N)c2)C3=O)cnc1OC` gave a Ki below 100 nM. For `COc1cncc(-c2cc(C)c3c(n2)[C@H](C)N(c2cn[nH]c2)C3=O)c1`, the Ki was below 100 nM. For the compound `Cc1cc(-c2cncc(S(=O)(=O)N(C)C)c2)nc2c1C(=O)N(c1cnn(CC(F)(F)F)c1)C2(C)C`, the Ki is below 100 nM.

`Cc1cc(-c2cccnc2)nc2c1C(=O)N(c1cnn(CC#N)c1)C2` had a Ki below 100 nM.

Consider `COc1cc(-c2ccc3c(n2)CN(c2cnn(C[C@H](O)CC#N)c2)C3=O)cnc1OC`, for which the Ki is below 100 nM.

Take `COc1ncc(-c2ccc3c(n2)[C@H](C)N(c2cnn(CC(F)(F)F)c2)C3=O)cc1O`: the inhibitory constant (Ki) is below 100 nM.

`CCCn1cc(N2Cc3cc(-c4cnc(OC)c(OC)c4)ccc3C2=O)cn1`: the Ki lay in the range of 100 to 490 nM. Consider `COc1cncc(-c2cc(C)c3c(n2)C(C)(C)N(c2cnn([C@@H]4CCOC4)c2)C3=O)c1`, for which the Ki was below 100 nM. `COc1cc(-c2ccc3c(n2)CN(c2ccc(=O)n(CC4OCCO4)c2)C3=O)cnc1OC` had a Ki of 100 to 490 nM.

In turn, `COc1cc(-c2cc(C)c3c(n2)C(O)(C2CC2)N(c2cnn(CC(F)(F)F)c2)C3=O)cnc1OC` (stereo not given) had a Ki below 100 nM.

`COc1cc(-c2cc(C)c3c(n2)[C@@H](C)N(c2cnn(CC(F)(F)F)c2)C3=O)cnc1C` showed a Ki below 100 nM. For `COc1cc(-c2ccc3c(n2)[C@H](OC)N(c2cnn(CC(F)(F)F)c2)C3=O)cnc1OC` the value was below 100 nM. For the compound `CCOc1cncc(-c2cc(C)c3c(n2)C(C)(C)N(c2cn[nH]c2)C3=O)c1`, the Ki was 100 to 490 nM. For `CCOc1cc(N2Cc3nc(-c4cnc(OC)c(OC)c4)cc(C)c3C2=O)ccn1` the value was below 100 nM. Regarding `COc1cc(-c2ccc3c(n2)CN(c2ccnc(OCC(F)F)c2)C3=O)cnc1OC`, the Ki lay within 100 to 490 nM. `COc1cc(-c2ccc3c(c2)CN(c2cccc(C(C)C#N)c2)C3=O)cnc1OC` (stereo not given) showed a Ki of 100 to 490 nM. `COc1cc(-c2ccc3c(n2)[C@H](C)N(c2cc[nH]n2)C3=O)cnc1OC` had a Ki below 100 nM. Next, `COc1cncc(-c2cc(C)c3c(n2)C2(CCOC2)N(c2cnn(CC(F)(F)F)c2)C3=O)c1` (stereo not given): below 100 nM. `COc1cc(-c2ccc3c(n2)CN(c2ccnc(C(C)(C)C#N)c2)C3=O)cnc1OC` gave a Ki below 100 nM.

In the case of `CCOC(=O)c1cncc(N2Cc3nc(-c4cnc(OC)c(OC)c4)ccc3C2=O)c1`, the Ki lay within 100 to 490 nM.

`COCCO[C@H]1c2nc(-c3cnc(OC)c(OC)c3)ccc2C(=O)N1c1cnn(CC(F)(F)F)c1` registered a Ki of 100 to 490 nM. The compound `COc1cc(-c2ccc3c(n2)CN(c2ccn(C[C@H](C)O)n2)C3=O)cnc1OC` showed a Ki below 100 nM. Next, `COc1cncc(-c2cc(C)c3c(n2)C2(C[C@@H](O)[C@@H](O)C2)N(c2cnn(CC(F)(F)F)c2)C3=O)c1` (stereo not given in full): below 100 nM; `CCn1ccc(N2C(=O)c3ccc(-c4cnc(OC)c(OC)c4)nc3[C@@H]2C)n1`: below 100 nM.

Values taken from the Kinase Knowledgebase extract (Sharma et al. 2016).
